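Exposure lasted 48 hours, with cells grown in 96-well plates and compounds tested at five concentrations. The concentration for full growth arrest is given as TGI.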
How the values were obtained:
Test in all cases: NCI tumour cell line growth inhibition, 48 h
HS 578T breast = system: HS 578T breast
RPMI-8226 leukemia = system: RPMI-8226 leukemia
NCI-H23 lung = system: NCI-H23 lung
SN12C renal = system: SN12C renal
HT29 colon = system: HT29 colon
HOP-92 NSCLC = system: HOP-92 NSCLC
KM12 colon = system: KM12 colon
SNB-75 CNS = system: SNB-75 CNS
HCT-116 colon = system: HCT-116 colon
SW-620 colon = system: SW-620 colon
SR leukemia = system: SR leukemia
OVCAR-4 ovarian = system: OVCAR-4 ovarian
NCI-H522 lung = system: NCI-H522 lung
A498 renal = system: A498 renal
A549 NSCLC = system: A549 NSCLC
MCF7 breast = system: MCF7 breast
SF-539 CNS = system: SF-539 CNS
SF-268 CNS = system: SF-268 CNS
SF-295 CNS = system: SF-295 CNS
UACC-257 melanoma = system: UACC-257 melanoma
MALME-3M melanoma = system: MALME-3M melanoma
SNB-19 CNS = system: SNB-19 CNS
OVCAR-8 ovarian = system: OVCAR-8 ovarian
DU-145 prostate = system: DU-145 prostate
T-47D breast = system: T-47D breast
HCC-2998 colon = system: HCC-2998 colon
SK-MEL-5 melanoma = system: SK-MEL-5 melanoma
MDA-MB-435 = system: MDA-MB-435
UO-31 renal = system: UO-31 renal
K-562 leukemia = system: K-562 leukemia
SK-OV-3 ovarian = system: SK-OV-3 ovarian
NCI-H226 lung = system: NCI-H226 lung
786-0 renal = system: 786-0 renal
IGROV1 ovarian = system: IGROV1 ovarian
MDA-MB-231 breast = system: MDA-MB-231 breast
NCI/ADR-RES ovarian = system: NCI/ADR-RES ovarian
U251 CNS = system: U251 CNS
PC-3 prostate = system: PC-3 prostate
RXF 393 renal = system: RXF 393 renal
M14 melanoma = system: M14 melanoma
UACC-62 melanoma = system: UACC-62 melanoma
TK-10 renal = system: TK-10 renal
CAKI-1 renal = system: CAKI-1 renal
CCRF-CEM leukemia = system: CCRF-CEM leukemia
HCT-15 colon = system: HCT-15 colon
NCI-H460 lung = system: NCI-H460 lung
MDA-N = system: MDA-N
COLO 205 colon = system: COLO 205 colon
BT-549 breast = system: BT-549 breast
OVCAR-5 ovarian = system: OVCAR-5 ovarian
EKVX NSCLC = system: EKVX NSCLC
SK-MEL-28 melanoma = system: SK-MEL-28 melanoma
OVCAR-3 ovarian = system: OVCAR-3 ovarian
HOP-62 NSCLC = system: HOP-62 NSCLC
MOLT-4 leukemia = system: MOLT-4 leukemia
LOX IMVI melanoma = system: LOX IMVI melanoma
SK-MEL-2 melanoma = system: SK-MEL-2 melanoma
ACHN renal = system: ACHN renal

Measured: TGI

S=C1c2cc(Cl)ccc2NC(=NC2CCCC2)C2CSCN12 (stereo not drawn)
> 100 µM: all assays above
